Assay results published in ChEMBL document CHEMBL3745649, “Structure-activity relationship study of anticancer thymidine-quinoxaline conjugates under the low radiance of long wavelength ultraviolet light for photodynamic therapy” (Eur J Med Chem, 2016).
Calls of active or inactive are those of the source. The rule behind the calls is not given here.

Legend:
[1] = Induction of apoptosis in human PANC1 cells assessed as viable cells at 2 uM after 24 hrs by Annexin V-FITC/propidium iodide staining-based flow cytometric analysis in absence of UVA-1 irradiation (reference value: 88.6%); assay type: cell-based, PANC-1; conditions: read-out: Activity
[2] = Photocytotoxicity against human PANC1 cells assessed as cell viability preincubated for 5 hrs with cells followed by white light irradiation at 0.015 mW/cm'2 for 20 mins measured after 48 hrs by CCK8 assay; assay type: functional, cell-based; conditions: PANC-1, light or radiation study
[3] = Photocytotoxicity against human PANC1 cells assessed as cell viability preincubated for 5 hrs with cells followed by UVA-1 irradiation at 3.0 mW/cm'2 for 20 mins measured after 48 hrs by CCK8 assay; assay type: functional, cell-based; conditions: PANC-1, light or radiation study
[4] = Induction of apoptosis in human PANC1 cells assessed as early apoptotic cells at 2 uM after 24 hrs by Annexin V-FITC/propidium iodide staining-based flow cytometric analysis in absence of UVA-1 irradiation (reference value: 9.4%); assay type: cell-based; conditions: panc-1, 24 h
[5] = Induction of apoptosis in human PANC1 cells assessed as late apoptotic cells at 2 uM after 24 hrs by Annexin V-FITC/propidium iodide staining-based flow cytometric analysis in absence of UVA-1 irradiation (reference value: 1.5%); assay type: cell-based; conditions: panc-1, 24 h
[6] = Induction of apoptosis in human PANC1 cells assessed as necrotic cells at 2 uM after 24 hrs by Annexin V-FITC/propidium iodide staining-based flow cytometric analysis in absence of UVA-1 irradiation (reference value: 0.5%); assay type: cell-based; conditions: panc-1, 24 h
PANC-1 [7] = assay: Induction of apoptosis in human PANC1 cells assessed as viable cells at 2 uM preincubated for 5 hrs followed by UVA-1 irradiation at 3 mW/cm'2 for 20 mins measured after 24 hrs by Annexin V-FITC/propidium iodide staining-based flow cytometric analysis (reference value: 91%); assay type: functional; conditions: PANC-1, light or radiation study, read-out: Activity
PANC-1 [8] = assay: Induction of apoptosis in human PANC1 cells assessed as early apoptotic cells at 2 uM preincubated for 5 hrs followed by UVA-1 irradiation at 3 mW/cm'2 for 20 mins measured after 24 hrs by Annexin V-FITC/propidium iodide staining-based flow cytometric analysis (reference value: 7.4%); assay type: functional
PANC-1 [9] = assay: Induction of apoptosis in human PANC1 cells assessed as late apoptotic cells at 2 uM preincubated for 5 hrs followed by UVA-1 irradiation at 3 mW/cm'2 for 20 mins measured after 24 hrs by Annexin V-FITC/propidium iodide staining-based flow cytometric analysis (reference value: 1.3%); assay type: functional
PANC-1 [10] = assay: Induction of apoptosis in human PANC1 cells assessed as necrotic cells at 2 uM preincubated for 5 hrs followed by UVA-1 irradiation at 3 mW/cm'2 for 20 mins measured after 24 hrs by Annexin V-FITC/propidium iodide staining-based flow cytometric analysis (reference value: 0.3%); assay type: functional
[11] = Dark cytotoxicity against human PANC1 cells assessed as production of reactive oxygen stress at 5 uM after 5 hrs by DCFH-DA based fluorescence microscopic analysis in absence of UVA-1 irradiation; assay type: cell-based; conditions: panc-1, 5 h
PANC-1 [12] = assay: Photocytotoxicity against human PANC1 cells assessed as production of reactive oxygen stress at 5 uM preincubated for 5 hrs followed by UVA-1 irradiation at 3 mW/cm'2 for 20 mins by DCFH-DA based fluorescence microscopic analysis; assay type: functional, cell-based
[13] = Retention time of the compound at 5 uM by HPLC analysis; assay type: physicochemical
PANC-1 [14] = assay: Photocytotoxicity against human PANC1 cells assessed as production of reactive oxygen stress at 5 uM preincubated for 5 hrs followed by UVA-1 irradiation at 3 mW/cm'2 for 20 mins measured after 5 hrs by HPLC analysis; assay type: functional, cell-based
[15] = Retention time of the compound in human PANC1 cells at 5 uM after 5 hrs by HPLC analysis in absence of UVA-1 irradiation; assay type: ADME, cell-based; conditions: panc-1, 5 h
[16] = Retention time of the compound in human PANC1 cells at 5 uM preincubated for 5 hrs followed by UVA-1 irradiation at 3 mW/cm'2 for 20 mins measured after 5 hrs by HPLC analysis; assay type: ADME, cell-based; conditions: panc-1, 5 µM
Bel-7402 [17] = assay: Photocytotoxicity against human Bel7402 cells assessed as production of reactive oxygen stress at 5 uM preincubated for 5 hrs followed by UVA-1 irradiation at 0.85 mW/cm'2 for 20 mins measured for 4 to 10 mins by DCFH-DA based fluorescence microscopic analysis; assay type: functional, cell-based
PANC-1 [18] = assay: Photocytotoxicity against human PANC1 cells assessed as production of reactive oxygen stress at 5 uM preincubated for 5 hrs followed by UVA-1 irradiation at 0.85 mW/cm'2 for 20 mins measured for 4 to 10 mins by DCFH-DA based fluorescence microscopic analysis; assay type: functional, cell-based
PANC-1 [19] = assay: Potency index, ratio of sunitinib EC50 to compound EC50 for human PANC1 cells in presence of UVA-1 irradiation at 3 mW/cm'2; assay type: functional
Bel-7402 [20] = assay: Potency index, ratio of sunitinib EC50 to compound EC50 for human Bel7402 cells in presence of UVA-1 irradiation at 3 mW/cm'2; assay type: functional
PANC-1 [21] = assay: Ratio of EC50 for human PANC1 cells in presence of UVA-1 irradiation at 0.85 mW/cm'2 to EC50 for human PANC1 cells in presence of UVA-1 irradiation at 3 mW/cm'2; assay type: functional
Bel-7402 [22] = assay: Ratio of EC50 for human Bel7402 cells in presence of UVA-1 irradiation at 0.85 mW/cm'2 to EC50 for human Bel7402 cells in presence of UVA-1 irradiation at 3 mW/cm'2; assay type: functional
[23] = Photocytotoxicity against human PANC1 cells assessed as cell viability at 10 uM preincubated for 5 hrs with cells followed by white light irradiation at 0.015 mW/cm'2 for 20 mins measured after 48 hrs by CCK8 assay relative to control; assay type: functional; conditions: PANC-1, light or radiation study, read-out: Activity
[24] = Dark toxicity against human Bel7402 cells assessed as cell viability after 53 hrs by CCK8 assay in absence of UVA-1 irradiation; assay type: cell-based, Bel-7402
[25] = Dark toxicity against human PANC1 cells assessed as cell viability after 53 hrs by CCK8 assay in absence of UVA-1 irradiation; assay type: cell-based, PANC-1
[26] = Photocytotoxicity against human Bel7402 cells assessed as cell viability preincubated for 5 hrs followed by UVA-1 irradiation at 0.85 mW/cm'2 for 20 mins measured after 48 hrs by CCK8 assay; assay type: functional, cell-based; conditions: Bel-7402, light or radiation study
[27] = Photocytotoxicity against human PANC1 cells assessed as cell viability preincubated for 5 hrs followed by UVA-1 irradiation at 0.85 mW/cm'2 for 20 mins measured after 48 hrs by CCK8 assay; assay type: functional, cell-based; conditions: PANC-1, light or radiation study
Bel-7402 [28] = assay: Photocytotoxicity against human Bel7402 cells assessed as cell viability pretreated with UVA-1 irradiation at 3.0 mW/cm'2 for 20 mins followed by cell addition measured after 48 hrs by CCK8 assay; assay type: functional, cell-based
PANC-1 [29] = assay: Photocytotoxicity against human PANC1 cells assessed as cell viability preincubated for 24 hrs with cells followed by UVA-1 irradiation for 20 mins at 3.0 mW/cm'2 measured after 48 hrs by CCK8 assay; assay type: functional, cell-based
PANC-1 [30] = assay: Photocytotoxicity against human PANC1 cells assessed as cell viability pretreated with UVA-1 irradiation at 3.0 mW/cm'2 for 20 mins followed by cell addition measured after 48 hrs by CCK8 assay; assay type: functional, cell-based
[31] = Photocytotoxicity against human Bel7402 cells assessed as cell viability preincubated for 5 hrs with cells followed by UVA-1 irradiation at 3.0 mW/cm'2 for 20 mins measured after 48 hrs by CCK8 assay; assay type: functional, cell-based; conditions: Bel-7402, light or radiation study
Bel-7402 [32] = assay: Photocytotoxicity against human Bel7402 cells assessed as cell viability preincubated for 24 hrs with cells followed by UVA-1 irradiation for 20 mins at 3.0 mW/cm'2 measured after 48 hrs by CCK8 assay; assay type: functional, cell-based
[33] = Photocytotoxicity against human Bel7402 cells assessed as cell viability at 10 uM preincubated for 5 hrs with cells followed by white light irradiation at 0.015 mW/cm'2 for 20 mins measured after 48 hrs by CCK8 assay relative to control; assay type: functional; conditions: Bel-7402, light or radiation study, read-out: Activity
[34] = Photocytotoxicity against human Bel7402 cells assessed as cell viability preincubated for 5 hrs with cells followed by white light irradiation at 0.015 mW/cm'2 for 20 mins measured after 48 hrs by CCK8 assay; assay type: functional, cell-based; conditions: Bel-7402, light or radiation study
[35] = Photocytotoxicity against human Bel7402 cells assessed as cell viability preincubated for 5 hrs followed by UVA-1 irradiation at 5.4 mW/cm'2 for 20 mins measured after 48 hrs by CCK8 assay; assay type: functional, cell-based; conditions: Bel-7402, light or radiation study
[36] = Photocytotoxicity against human PANC1 cells assessed as cell viability preincubated for 5 hrs followed by UVA-1 irradiation at 5.4 mW/cm'2 for 20 mins measured after 48 hrs by CCK8 assay; assay type: functional, cell-based; conditions: PANC-1, light or radiation study

Compound `Cc1cn([C@H]2C[C@H](n3cc(CNC(=O)CCCCCOc4ccc5c(c4)-c4nc6cc(Cl)c(Cl)cc6nc4[C@@H]4C(C)(C)CCC[C@]54C)nn3)[C@@H](CO)O2)c(=O)[nH]c1=O` has a viability at 24 h, 2 µM [1] of 89.4%, an EC50 [2] of over 10000 nM and an EC50 [3] of 1300 nM. The Activity [4] was 8.8%, the Activity [5] was 1.4% and the Activity [6] was 0.4%. For the same compound, the viability at 2 µM (PANC-1 [7]) was 40.5%, the Activity (PANC-1 [8]) was 11.9% and the Activity (PANC-1 [9]) was 44.1%. For the same compound, the Activity (PANC-1 [10]) was 3.5%, the Activity [11] was “Non-toxic” and the Activity (PANC-1 [12]) was “Active”. The Retention_time [13] was 68 min, the Activity (PANC-1 [14]) was “Active” and the Retention_time [15] was 68 min. The Retention_time [16] was 68 min, the Activity (Bel-7402 [17]) was “Active” and the Activity (PANC-1 [18]) was “Active”. For the same compound, the “Ratio EC50” value (PANC-1 [19]) was 20, the “Ratio EC50” value (Bel-7402 [20]) was 10 and the “Ratio EC50” value (PANC-1 [21]) was 4. The “Ratio EC50” value (Bel-7402 [22]) was 3, the viability at 10 µM [23] was under 40% and the EC50 at 53 h [24] was over 20000 nM. For the same compound, the EC50 at 53 h [25] was at least 50000 nM, the EC50 [26] was 2000 nM and the EC50 [27] was 5700 nM. For the same compound, the Activity (Bel-7402 [28]) was “inactive”, the Activity (PANC-1 [29]) was “Active” and the Activity (PANC-1 [30]) was “inactive”. For the same compound, the EC50 [31] was 670 nM, the Activity (Bel-7402 [32]) was “Active” and the viability at 10 µM [33] was under 40%. For the same compound, the EC50 [34] was over 10000 nM, the EC50 [35] was 610 nM and the EC50 [36] was 1200 nM.
